# Source: patent US9340511B2, “Process for making isoquinoline compounds” (FIBROGEN, INC., priority 2012, dated 2016)
# Tested on: Hep3B cells
# Experiment: Cell-Based EPO Assay
# Design: species or system human
# Conditions: 30 μM compound in DMSO compared to DMSO only control, 72 hours, value minus vehicle control
# Method: Cell-Based EPO Assay Hep3B cells (human hepatocellular carcinoma cells from ATCC, cat # HB-8064) were plated at 25,000 cells per well 96 well plates. The next day, the cells were washed once with DMEM (Cellgro, cat #10-013-CM)+0.5% fetal bovine serum (Cellgro, cat #35-010-CV) and incubated with various concentrations of compound or vehicle control (0.15% DMSO) in DMEM+0.5% fetal bovine serum for 72 hours. Cell free culture supernatants were generated by transfer to a conical bottom 96 well plate and centrifugation for 5 minutes at 2000 rpm. The supernatant was quantitated for EPO using a human EPO ELISA kit (R&D Systems, cat # DEP 00). The EPO values for the compounds reported herein (e.g., Table 1) are the measured value for cells plus compound minus the value for the vehicle control for the same cell preparation. The EPO values for the vehicle control for the cell preparations used in experiments reported herein varied from 0-12.5 mIU/ml.
row,SMILES,Cell EPO* (mIU/ml)
1,"Cc1nc(C(=O)NCC(=O)O)c(O)c2c(Oc3ccccc3)cccc12 [Compound 1f, 2-(4-hydroxy-1-methyl-5-phenoxyisoquinoline-3-carboxamido)acetic acid]",98.6
2,"Cc1nc(C(=O)NCC(=O)O)c(O)c2cc(Oc3cc(F)cc(F)c3)ccc12 [Compound 8f, 2-[4-hydroxy-1-methyl-6-(3,5-difluoro-phenoxy)-isoquinoline-3-carboxamido]acetic acid]",105
3,"Cc1nc(C(=O)NCC(=O)O)c(O)c2cc(Oc3ccccc3)ccc12 [Compound 2f, 2-(4-hydroxy-1-methyl-6-phenoxyisoquinoline-3-carboxamido)acetic acid]",78
4,"Cc1nc(C(=O)NCC(=O)O)c(O)c2ccc(Oc3cc(F)cc(F)c3)cc12 [Compound 7f, 2-[4-hydroxy-1-methyl-7-(3,5-difluoro-phenoxy)-isoquinoline-3-carboxamido]acetic acid]",225
5,"COc1ccc(Oc2ccc3c(C)nc(C(=O)NCC(=O)O)c(O)c3c2)cc1 [Compound 6f, 2-[4-hydroxy-1-methyl-6-(4-methoxy-phenoxy)-isoquinoline-3-carboxamido]acetic acid]",191
6,"COc1ccc(Oc2ccc3c(O)c(C(=O)NCC(=O)O)nc(C)c3c2)cc1 [Compound 5f, 2-[4-hydroxy-1-methyl-7-(4-methoxy-phenoxy)-isoquinoline-3-carboxamido]acetic acid]",209
7,"Cc1nc(C(=O)NCC(=O)O)c(O)c2cccc(Oc3ccccc3)c12 [Compound 4f, 2-(4-hydroxy-1-methyl-8-phenoxyisoquinoline-3-carboxamido)acetic acid]",52
